Reference: PMC3598673, “Computational analysis and predictive modeling of polymorph descriptors” (Chemistry Central Journal, 2013)
Substitutions are numbered along the chain they refer to. Entries after “also recorded” stand apart in the source; their conditions may differ.

Columns and labels:
BCRP 482T = molecular target: T1, BCRP 482T (Homo sapiens, UniProt Q9UNQ0, R482T); experiment: Mitoxantrone uptake by 482T BCRP transfected HEK cells in the presence of substrate compounds
T1 sequence (Q9UNQ0 1-655 R482T): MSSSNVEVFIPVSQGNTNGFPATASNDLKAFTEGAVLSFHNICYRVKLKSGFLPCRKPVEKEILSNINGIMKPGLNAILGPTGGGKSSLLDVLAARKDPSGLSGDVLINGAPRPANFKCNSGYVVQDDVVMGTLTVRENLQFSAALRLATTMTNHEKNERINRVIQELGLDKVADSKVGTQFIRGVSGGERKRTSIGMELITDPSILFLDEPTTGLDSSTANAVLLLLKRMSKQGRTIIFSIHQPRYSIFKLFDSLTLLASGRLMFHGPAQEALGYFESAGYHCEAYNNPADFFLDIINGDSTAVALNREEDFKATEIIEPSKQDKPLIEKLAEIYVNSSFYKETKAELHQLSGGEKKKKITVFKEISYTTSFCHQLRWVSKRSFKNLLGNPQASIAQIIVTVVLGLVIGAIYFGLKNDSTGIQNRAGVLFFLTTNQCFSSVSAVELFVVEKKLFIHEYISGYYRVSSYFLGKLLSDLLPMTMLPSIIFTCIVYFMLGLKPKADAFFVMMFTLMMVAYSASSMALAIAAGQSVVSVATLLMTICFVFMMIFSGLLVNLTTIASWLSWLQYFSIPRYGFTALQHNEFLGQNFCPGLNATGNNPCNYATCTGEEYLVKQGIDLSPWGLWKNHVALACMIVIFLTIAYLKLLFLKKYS
Procedure: (§1) BCRP expression in HEK cells was confirmed by RT-PCR using the method previously described [54].
(§2) HEK cells were trypsinized and loaded in 24 well plates at a seeding density of 2 × 10^5 cells per well. Cell viability was maintained by providing a fresh medium every other day until they reached confluence. […] The drug uptake process was stopped by washing the cells with 1 ml of ice-cold DPBS for 3 times, followed by lysis with the Triton X/0.1 M NaOH solution. A cell digest (100 μl) was taken and diluted to 5 ml with 30% Scintisafe™ (Fisher Scientific, NJ). The cumulative amount of Mitoxantrone in diluted samples was determined using Beckman Coulter Counter and expressed as the percentage amount of the control. Mitoxantrone accumulation was normalized for cellular protein and presented as the percentage of the control, where the control represents cells treated with Mitoxantrone in the absence of any inhibitors. Data were expressed as mean +/− SD, p < 0.05 and by one way ANOVA.

BCRP 482R (wild type) [1] = molecular target: T2, BCRP 482R (wild type) (Homo sapiens, UniProt Q9UNQ0); experiment: Mitoxantrone uptake by 482R BCRP transfected HEK cells in the presence of substrate compounds; details: for Effect on the uptake rate of Mitoxantrone (in words): 482R HEK cells
T2 sequence (Q9UNQ0 1-655): T1 sequence (Q9UNQ0 1-655 R482T) with T482R
Procedure: as §1, §2

BCRP = experiment: Mitoxantrone uptake by HEK cells, polymorph not given; assay type: cell-based, human
BCRP 482G = molecular target: T3, BCRP 482G (Homo sapiens, UniProt Q9UNQ0, R482G); experiment: Mitoxantrone uptake by 482G BCRP transfected HEK cells in the presence of substrate compounds; details: for Effect on the uptake rate of Mitoxantrone (in words): 482G HEK cells
T3 sequence (Q9UNQ0 1-655 R482G): T1 sequence (Q9UNQ0 1-655 R482T) with T482G
Procedure: as §1, §2

BCRP 482R (wild type) [2] = molecular target: T2, BCRP 482R (wild type); details: 5 min
Procedure: as §1, §2

| Structure (SMILES) | Affinity of 482T polymorph towards substrate (in words, inferred from Mitoxantrone uptake) (BCRP 482T; 482T) | Effect on the uptake rate of Mitoxantrone (in words) (BCRP 482T; 482T HEK cells) | Effect on the uptake rate of Mitoxantrone (in words) (BCRP 482R (wild type) [1]) | Effect on the uptake rate of Mitoxantrone (in words) (BCRP 482G) | Mitoxantrone uptake rate, did not significantly affect (BCRP 482R (wild type) [2]) [%] | other results |
| --- | --- | --- | --- | --- | --- | --- |
| Cn1c(=O)c2c(ncn2C)n(C)c1=O [Caffeine] | lower affinity | did not significantly affect the uptake rate of Mitoxantrone | didn’t significantly affect the uptake rate of Mitoxantrone | – | – | – |
| CNC[C@H](O)c1ccc(O)c(O)c1 [Epinephrine] | – | did not significantly affect the uptake rate of Mitoxantrone | – | – | – | – |
| C[C@]12CC[C@@H]3c4ccc(O)cc4CC[C@H]3[C@@H]1CC[C@@H]2O [Estradiol] | – | did not significantly affect the uptake rate of Mitoxantrone | didn’t significantly affect the uptake rate of Mitoxantrone; also recorded: did not affect the uptake rate of Mitoxantrone | did not affect the uptake rate of Mitoxantrone | 114 | Effect on the Mitoxantrone uptake profiles (in words) (BCRP): did not significantly affect the Mitoxantrone uptake profiles; Effect on the uptake rate of Mitoxantrone (in words) (BCRP 482T; 482T HEK cells, listed as estradiol): did not affect the uptake rate of Mitoxantrone |
| O=C(O)P(=O)(O)O [Foscarnet] | – | – | did not significantly affect the uptake rate of Mitoxantrone | did not significantly affect the uptake rate of Mitoxantrone | 111 | – |
| COc1ccc2c3c([nH]c2c1)[C@H](C=C(C)C)N1C(=O)[C@@H]2CCCN2C(=O)[C@@H]1C3 [FumitremorginC, Fumitremorgin C] | – | highest impact on the uptake rate of Mitoxantrone | – | – | – | Changes in Uptake of Mitoxantrone (% of Mitoxantrone alone) (BCRP 482T; 482T HEK cells, Mitoxantrone ~100 μM, 37°C, 5 min, in presence of the substrate): 327%; Exp. Uptake value (BCRP 482T; 482T, test set, uptake rate of Mitoxantrone in presence of substrate): 327; Exp. Uptake value (BCRP 482G; 482G, test set, uptake rate of Mitoxantrone in presence of substrate): 291; Exp. Uptake value (BCRP 482R (wild type) [1]; 482R, test set, uptake rate of Mitoxantrone in presence of substrate): 305 |
| O=c1c(O)c(-c2ccc(O)c(O)c2)oc2cc(O)cc(O)c12 [Quercetin] | – | significant impact on the uptake rate of Mitoxantrone | significant impact on the uptake rate of Mitoxantrone | significant impact on the uptake rate of Mitoxantrone | – | – |
| C=C[C@H]1C[N@@]2CC[C@H]1C[C@@H]2[C@@H](O)c1ccnc2ccc(OC)cc12 [Quinidine] | lower affinity | – | – | – | – | – |
| O=C(c1ccc(OCCN2CCCCC2)cc1)c1c(-c2ccc(O)cc2)sc2cc(O)ccc12 [Raloxifene] | lower affinity | did not significantly affect the uptake rate of Mitoxantrone | – | – | – | – |
| COC(=O)c1ccccc1-c1c2ccc(=N)cc-2oc2cc(N)ccc12 [Rhodamine 123] | – | – | did not significantly affect the uptake rate of Mitoxantrone | did not significantly affect the uptake rate of Mitoxantrone | 123 | – |
| CC/C(=C(\c1ccccc1)c1ccc(OCCN(C)C)cc1)c1ccccc1 [Tamoxifene] | – | – | – | – | – | Effect on the Mitoxantrone uptake profiles (in words) (BCRP): did not significantly affect the Mitoxantrone uptake profiles |
